Tests used:
MDA-MB-231 = assay: Cell viability assay (SRB or CTG) in MDA-MB-231; format: cell-based; details: Homo sapiens, MDA-MB-231, 72 h, 3 days after drug treatment
Experimental: (§1) Human breast carcinoma cell line, MDA-MB-231 and human endometrial cancer cell line, HEC-59 were purchased from ATCC (American Type Culture Collection; USA). MDA-MB-231 cells were cultured in Dulbecco's modified Eagle's medium (Lonza, NJ, USA), and HEC-59 were grown in Iscove's Modified Dulbecco's Medium (Lonza, NJ, USA), supplemented with 10% fetal bovine serum (FBS, Lonza), 1% non-essential amino acid (NEAA), 2 mM L-glutamine (Sigma Aldrich, MO, USA) and 50 U/ml penicillin/streptomycin (P/S). All cell lines were tested regularly using MycoAlert Mycoplasma Detection Kit (Lonza). The cumulative length of the cells between thawing and use in the experiments was less than 20 passages.
(§2) 4000 cells/well of MDA-MB-231 and HEC-59 cells were seeded in a 96 well plate in 80 μL media/well. Approximately 18 hours later, 3× drug solutions were prepared by serial dilution (100, 10, 5, 1, 0.5, 0.3, 0.1, 0.05, 0.01 μM), and the drug containing media was added to each well with a volume of 40 μL. For MDA-MB-231, 3 days after drug treatment, the SRB or CTG assay was performed. HEC59, the drug containing media was renewed at day 4. After 7 days total, the SRB or CTG assay was performed.

HEC-59 = assay: Cell viability assay (SRB or CTG) in HEC-59; format: cell-based; details: Homo sapiens, 7 days total, media renewed at day 4, SRB or CTG
Experimental: as §1, §2

Row | Compound | IC50 (MDA-MB-231) [µM] | IC50 (HEC-59) [µM]
1 | C[C@@H]1CN(c2ncc(F)c(Nc3cc(-c4ccc(OC(F)F)cc4)c(N)nn3)n2)C[C@H](C)O1 [Compound 598, 5-(4-(difluoromethoxy)phenyl)-N3-(2-((2R,6S)-2,6-dimethylmorpholino)-5-fluoropyrimidin-4-yl)pyridazine-3,6-diamine] | 0.805 | 9.85
2 | COC(=O)c1nnc(Nc2nc(N3C[C@@H](C)O[C@@H](C)C3)ncc2F)cc1-c1ccc(OC(F)F)cc1 [Compound 616, methyl 4-(4-(difluoromethoxy)phenyl)-6-((2-((2R,6S)-2,6-dimethylmorpholino)-5-fluoropyrimidin-4-yl)amino)pyridazine-3-carboxylate] | > 10 | > 10
3 | COc1nnc(Nc2nc(N3C[C@@H](C)O[C@@H](C)C3)ncc2F)cc1-c1ccc(OC(F)F)cc1 [Compound 526, 5-(4-(difluoromethoxy)phenyl)-N-(2-((2R,6S)-2,6-dimethylmorpholino)-5-fluoropyrimidin-4-yl)-6-methoxypyridazin-3-amine] | > 10 | 1.18
4 | CNc1nnc(Nc2nc(N3C[C@@H](C)O[C@@H](C)C3)ncc2F)cc1-c1ccc(OC(F)F)cc1 [Compound 544, 4-(4-(difluoromethoxy)phenyl)-N6-(2-((2R,6S)-2,6-dimethylmorpholino)-5-fluoropyrimidin-4-yl)-N3-methylpyridazine-3,6-diamine] | > 10 | 2.72
5 | C[C@@H]1CN(c2cc(Nc3cc(-c4ccc(OC(F)F)cc4)cnn3)ccn2)C[C@H](C)O1 [Compound 428, 5-(4-(difluoromethoxy)phenyl)-N-(2-((2R,6S)-2,6-dimethylmorpholino)pyridin-4-yl)pyridazin-3-amine] | 0.794 | > 10
6 | C[C@@H]1CN(c2nc(F)cc(Nc3cc(-c4ccc(OC(F)F)cc4)cnn3)n2)C[C@H](C)O1 [Compound 131, 5-(4-(difluoromethoxy)phenyl)-N-(2-((2R,6S)-2,6-dimethylmorpholino)-6-fluoropyrimidin-4-yl)pyridazin-3-amine] | 0.181 | 0.142
7 | Cc1nnc(Nc2nc(N3C[C@@H](C)O[C@@H](C)C3)ncc2F)cc1-c1ccc(OC(F)F)cc1 [Compound 508, 5-(4-(difluoromethoxy)phenyl)-N-(2-((2R,6S)-2,6-dimethylmorpholino)-5-fluoropyrimidin-4-yl)-6-methylpyridazin-3-amine] | > 10 | 7.26
8 | CC(=O)c1nnc(Nc2nc(N3C[C@@H](C)O[C@@H](C)C3)ncc2F)cc1-c1ccc(OC(F)F)cc1 [Compound 580, 1-(4-(4-(difluoromethoxy)phenyl)-6-((2-((2R,6S)-2,6-dimethylmorpholino)-5-fluoropyrimidin-4-yl)amino)pyridazin-3-yl)ethan-1-one] | > 10 | > 10
9 | C[C@@H]1CN(c2ncc(F)c(Nc3cc(-c4ccc(OC(F)F)cc4)cnn3)n2)C[C@@H](C)O1 [Compound 90, 5-(4-(difluoromethoxy)phenyl)-N-(2-((2R,6R)-2,6-dimethylmorpholino)-5-fluoropyrimidin-4-yl)pyridazin-3-amine] | 0.533 | 1.1
10 | Fc1cnc(N2CCOC3CC32)nc1Nc1cc(-c2ccc(OC(F)F)cc2)cnn1 (stereo not drawn) [Compound 103, N-(2-(2-oxa-5-azabicyclo[4.1.0]heptan-5-yl)-5-fluoropyrimidin-4-yl)-5-(4-(difluoromethoxy)phenyl)pyridazin-3-amine] | > 10 | > 10
11 | COc1ncc(-c2ccc(OC(F)F)cc2)cc1Nc1nc(N2C[C@@H](C)O[C@@H](C)C2)ncc1F [Compound 387, N-(5-(4-(difluoromethoxy)phenyl)-2-methoxypyridin-3-yl)-2-((2R,6S)-2,6-dimethylmorpholino)-5-fluoropyrimidin-4-amine] | > 10 | > 10
12 | C[C@@H]1CN(c2ncc(F)c(Nc3cc(-c4ccc(OC(F)F)cc4)c(C(=O)O)nn3)n2)C[C@H](C)O1 [Compound 562, 4-(4-(difluoromethoxy)phenyl)-6-((2-((2R,6S)-2,6-dimethylmorpholino)-5-fluoropyrimidin-4-yl)amino)pyridazine-3-carboxylic acid] | > 10 | > 10
13 | COc1ncc(-c2ccc(OC(F)F)cc2)cc1Nc1ccnc(N2C[C@@H](C)O[C@@H](C)C2)n1 [Compound 305, N-(5-(4-(difluoromethoxy)phenyl)-2-methoxypyridin-3-yl)-2-((2R,6S)-2,6-dimethylmorpholino)pyrimidin-4-amine] | > 10 | > 10
14 | C[C@H]1CN(c2ncc(F)c(Nc3cc(-c4ccc(OC(F)F)cc4)cnn3)n2)C[C@H](C)O1 [Compound 91, 5-(4-(difluoromethoxy)phenyl)-N-(2-((2S,6S)-2,6-dimethylmorpholino)-5-fluoropyrimidin-4-yl)pyridazin-3-amine] | 0.328 | 0.2
15 | C[C@@H]1CN(c2cc(Nc3cc(-c4ccc(OC(F)F)cc4)cnn3)c(F)cn2)C[C@H](C)O1 [Compound 469, 5-(4-(difluoromethoxy)phenyl)-N-(2-((2R,6S)-2,6-dimethylmorpholino)-5-fluoropyridin-4-yl)pyridazin-3-amine] | 0.645 | 1.3
16 | C[C@@H]1CN(c2nccc(Nc3cc(-c4ccc(OC(F)F)cc4)cnc3F)n2)C[C@H](C)O1 [Compound 182, N-(5-(4-(difluoromethoxy)phenyl)-2-fluoropyridin-3-yl)-2-((2R,6S)-2,6-dimethylmorpholino)pyrimidin-4-amine] | 1.09 | 0.29
17 | Fc1cnc(N2CCCC2)nc1Nc1cc(-c2ccc(OC(F)F)cc2)cnn1 [Compound 104, 5-(4-(difluoromethoxy)phenyl)-N-(5-fluoro-2-(pyrrolidin-1-yl)pyrimidin-4-yl)pyridazin-3-amine] | 0.345 | 0.086
18 | CNC(=O)c1nnc(Nc2nc(N3C[C@@H](C)O[C@@H](C)C3)ncc2F)cc1-c1ccc(OC(F)F)cc1 [Compound 634, 4-(4-(difluoromethoxy)phenyl)-6-((2-((2R,6S)-2,6-dimethylmorpholino)-5-fluoropyrimidin-4-yl)amino)-N-methylpyridazine-3-carboxamide] | > 10 | > 10
19 | C[C@@H]1CN(c2ncc(F)c(Nc3cc(-c4ccc(OC(F)F)cc4)c[nH]c3=O)n2)C[C@H](C)O1 [Compound 346, 5-(4-(difluoromethoxy)phenyl)-3-((2-((2R,6S)-2,6-dimethylmorpholino)-5-fluoropyrimidin-4-yl)amino)pyridin-2(1H)-one] | 1.05 | 0.784
20 | C[C@@H]1CN(c2ccc(F)c(Nc3cc(-c4ccc(OC(F)F)cc4)cnn3)n2)C[C@H](C)O1 [Compound 223, 5-(4-(difluoromethoxy)phenyl)-N-(6-((2R,6S)-2,6-dimethylmorpholino)-3-fluoropyridin-2-yl)pyridazin-3-amine] | 0.084 | 0.061
21 | C[C@@H]1CN(c2nccc(Nc3cc(-c4ccc(OC(F)F)cc4)c[nH]c3=O)n2)C[C@H](C)O1 [Compound 264, 5-(4-(difluoromethoxy)phenyl)-3-((2-((2R,6S)-2,6-dimethylmorpholino)pyrimidin-4-yl)amino)pyridin-2(1H)-one] | 0.202 | 0.121
